Values quoted from earlier work in article PMC8067797, “An In Vivo Predictive Dissolution Methodology (iPD Methodology) with a BCS Class IIb Drug Can Predict the In Vivo Bioequivalence Results: Etoricoxib Products” (Pharmaceutics, 2021).
Converted amounts (≈) assume the structure as drawn. “And” between values parts separate entries of the source, which are not always exact repeats. Equal values may be shown once. Read-outs that look alike come from different tables or passages of the source.

Columns and labels:
[1] = not given; remark: listed apart in the source
[2] = not given; remark: listed apart in the source
[3] = system: Caco-2; conditions: used for plasma simulations; ref [6]
[4] = parameters: method as in Schwartz et al. [23]; conditions: ref Schwartz et al. [23]
[5] = parameters: method as in Okumu et al. [7]; conditions: ref Okumu et al. [7]
[6] = curve fitting of literature data, ref [6]

Cc1ccc(-c2ncc(Cl)cc2-c2ccc(S(C)(=O)=O)cc2)cn1 [ETO, Etoricoxib]
Cs, solubility (pH 4.5, ref [7]): 440 µg/mL
solubility in FaSSIF or simulated intestinal fluids (SIF phosphate buffer) (pH 6.8, ref [7]): 140 µg/mL (≈ 0.39 mM)
solubility in the stomach (ref Mitra el al. [6]): 25000 µg/mL (≈ 69.7 mM)
BCS classification ([1]; low solubility pH 4–7, high permeability): BCS class II
logP ([1]; ref [14]): 2.79 and 2.794
pKa ([1]; weak base, ref [6],[7]): 4.96
Central compartment volume—Vc ([2]; average value, curve fitting of literature data, ref [6],[9],[21]): 27.40 L
Distribution rate constant from central to peripheral compartment—k12 [2, 6]: 0.6180 h⁻¹
Distribution rate constant from peripheral to central compartment—k21 [2, 6]: 0.2820 h⁻¹
Elimination rate constant from central compartment—ke [2, 6]: 0.0899 h⁻¹
Pharmacokinetics dose linearity ([2]; dose range 30–240 mg, ref [8]): linear
oral bioavailability ([2]; oral dosing, ref [8]): up to 100%
Oral absolute bioavailability ([2]; ref [9]): 83%
Oral absolute bioavailability ([2]; ref [10]): practically complete
Effective Permeability Small Intestine—Peff [3]: 475 ×10⁻⁶ cm/s
reduction of plasma Cmax ([4]; with calcium carbonate): 23%
reduction of plasma Cmax ([4]; with magnesium and aluminum hydroxide): 15%
precipitation in transfer system [5]: did not observe precipitation
supersaturation ratio (dissolved concentration / equilibrium solubility) ([5]; transfer system): below 3
